Reference: patent US20040176393A1, “Statin-MMP inhibitor combinations” (priority 1998, published 2004)
pIC50: −log10 of the molar value.

Assays:
Format in all cases: biochemical
MMP-3 (stromelysin) = MMP-3 (stromelysin) (Homo sapiens, UniProt P08254); assay: thiopeptolide substrate hydrolysis assay, MMP-3; settings: inhibition of hydrolytic activity of the enzyme, read-out: IC50 MMP3
Procedure: (§1) The assays measure the amount by which a test compound reduces the hydrolysis of a thiopeptolide substrate caused by a matrix metalloproteinase enzyme.
(§2) Thiopeptolide substrates show virtually no decomposition or hydrolysis in the absence of a matrix metalloproteinase enzyme. A typical thiopeptolide substrate commonly utilized for assays is Ac-Pro-Leu-Gly-thioester-Leu-Leu-Gly-OEt. […] Assays are carried out with and without matrix metalloproteinase inhibitor compounds, and the amount of hydrolysis is compared for a determination of inhibitory activity of the test compounds.

MMP-2 (Gelatinase A) = target: T1, MMP-2 (Gelatinase A) (Homo sapiens, UniProt P08253); assay: thiopeptolide substrate hydrolysis assay, MMP-2; settings: inhibition of hydrolytic activity of the enzyme, read-out: IC50 MMP2
T1 sequence (P08253 110-660): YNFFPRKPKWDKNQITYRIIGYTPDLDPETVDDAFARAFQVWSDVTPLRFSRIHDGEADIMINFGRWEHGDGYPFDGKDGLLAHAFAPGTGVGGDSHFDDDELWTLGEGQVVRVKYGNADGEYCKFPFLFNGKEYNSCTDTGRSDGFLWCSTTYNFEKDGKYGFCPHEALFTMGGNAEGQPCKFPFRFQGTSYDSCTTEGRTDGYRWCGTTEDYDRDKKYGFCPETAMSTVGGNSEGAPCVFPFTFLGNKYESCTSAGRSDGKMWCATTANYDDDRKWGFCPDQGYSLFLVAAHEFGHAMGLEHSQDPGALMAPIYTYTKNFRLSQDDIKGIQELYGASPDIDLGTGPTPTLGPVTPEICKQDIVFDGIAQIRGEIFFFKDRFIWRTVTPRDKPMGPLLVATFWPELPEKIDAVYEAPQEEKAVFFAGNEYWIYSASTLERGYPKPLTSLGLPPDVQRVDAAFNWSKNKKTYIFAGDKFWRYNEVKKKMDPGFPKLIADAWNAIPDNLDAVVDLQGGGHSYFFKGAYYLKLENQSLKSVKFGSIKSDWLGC
Procedure: as §1, §2

[1] = target: T2, MMP-1 (interstitial collagenase) (Homo sapiens, UniProt P03956); assay: thiopeptolide substrate hydrolysis assay, MMP-1; settings: inhibition of hydrolytic activity of the enzyme, read-out: IC50 MMP1
T2 sequence (P03956 100-469): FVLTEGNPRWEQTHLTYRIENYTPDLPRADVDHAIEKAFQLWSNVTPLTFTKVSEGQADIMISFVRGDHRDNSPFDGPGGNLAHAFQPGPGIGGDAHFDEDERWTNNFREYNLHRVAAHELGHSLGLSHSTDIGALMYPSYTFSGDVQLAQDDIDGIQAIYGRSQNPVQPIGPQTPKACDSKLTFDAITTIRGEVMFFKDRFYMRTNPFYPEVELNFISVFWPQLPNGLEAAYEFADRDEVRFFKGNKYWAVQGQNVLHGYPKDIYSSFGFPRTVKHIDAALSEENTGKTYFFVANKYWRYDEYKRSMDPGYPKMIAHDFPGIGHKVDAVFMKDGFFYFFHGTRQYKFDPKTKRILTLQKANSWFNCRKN
Procedure: as §1, §2

MMP-3 (stromelysin), sequence (P08254 100-477, species assumed): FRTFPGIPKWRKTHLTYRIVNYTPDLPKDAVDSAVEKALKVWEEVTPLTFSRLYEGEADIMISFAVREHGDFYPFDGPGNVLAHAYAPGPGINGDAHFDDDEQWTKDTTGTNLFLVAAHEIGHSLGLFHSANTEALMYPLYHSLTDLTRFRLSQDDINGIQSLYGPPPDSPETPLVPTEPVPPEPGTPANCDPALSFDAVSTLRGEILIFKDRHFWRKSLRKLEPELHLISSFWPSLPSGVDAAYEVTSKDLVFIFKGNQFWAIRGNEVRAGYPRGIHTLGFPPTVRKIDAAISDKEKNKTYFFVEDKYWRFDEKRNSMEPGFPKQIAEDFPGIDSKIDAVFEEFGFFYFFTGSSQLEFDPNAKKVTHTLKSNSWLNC

| Compound | pIC50 (MMP-3 (stromelysin)) | pIC50 (MMP-2 (Gelatinase A)) | pIC50 [1] |
| --- | --- | --- | --- |
| O=C(O)CCC(O)c1ccc(-c2ccc(Cl)cc2)cc1 (racemic) [(±)-4-(4′-Chloro-biphenyl-4-yl)-4-hydroxy-butyric acid] | 6.55 | 6.82 |  |
| O=C(O)CCC(=NO)c1ccc(-c2ccc(Br)cc2)cc1 [4-(4′-Bromo-biphenyl-4-yl)-4-hydroxyimino-butyric acid] | 6.96 | 7.24 |  |
| CN(C)N=C(CCC(=O)O)c1ccc(-c2ccc(Cl)cc2)cc1 [4-(4′-Chloro-biphenyl-4-yl)-4-(dimethylhydrazono)-butyric acid] | 6.03 | 6.14 |  |
| O=C(O)CCC(=NO)c1ccc(-c2ccc(Cl)cc2)cc1 [4-(4′-Chloro-biphenyl-4-yl)-4-hydroxyimino-butyric acid] | 6.92 | 6.41 |  |
| O=C(O)CCC(=O)c1ccc(N2CCN(c3ccccc3)CC2)cc1 [4-Oxo-4-[4-(4-phenyl-piperazin-1-yl)-phenyl]-butyric acid] | 6.60 | 5.80 |  |
| O=C(O)CCC(=O)c1ccc(N2CCC(c3ccccc3)CC2)cc1 [4-Oxo-4-[4-(4-phenyl-piperidin-1-yl)-phenyl]-butyric acid] | 6.85 | 5.89 |  |
| O=C(O)[C@H](CS)NS(=O)(=O)c1ccc2oc3ccccc3c2c1 [(L)-2-(Dibenzofuran-2-sulfonylamino)-3-mercapto-propionic acid] | 6.16 | 5.35 |  |
| CC(C)[C@H](NS(=O)(=O)c1ccc2oc3ccccc3c2c1)C(=O)O [(L)-2-(Dibenzofuran-2-sulfonylamino)-3-methyl-butyric acid] | 6.64 | 7.08 |  |
| O=C(O)[C@H](Cc1ccccc1)NS(=O)(=O)c1ccc2oc3ccccc3c2c1 [(L)-2-(Dibenzofuran-2-sulfonylamino)-3-phenyl-propionic acid] | 6.14 | 6.05 |  |
| O=C(O)[C@H](CSC(c1ccccc1)(c1ccccc1)c1ccccc1)NS(=O)(=O)c1ccc2oc3ccccc3c2c1 [(L)-2-(Dibenzofuran-2-sulfonylamino)-3-tritylsulfanyl-propionic acid] | 4.84 | 5.03 |  |
| CC(C)C[C@H](NS(=O)(=O)c1ccc2oc3ccccc3c2c1)C(=O)O [(L)-2-(Dibenzofuran-2-sulfonylamino)-4-methyl-pentanoic acid] | 5.93 | 6.49 |  |
| O=C(O)[C@H](Cc1ccccc1)NS(=O)(=O)c1ccc(-c2ccc(Br)cc2)cc1 [(S)-2-(4′-Bromo-biphenyl-4-sulfonylamino)-3-phenyl-propionic acid] |  | 7.59 |  |
| O=C(O)[C@H](CCc1ccccc1)NS(=O)(=O)c1ccc2oc3ccccc3c2c1 [(S)-2-(Dibenzofuran-2-sulfonylamino)-4-phenyl-butyric acid] | 6.34 | 6.58 |  |
| CC(=O)N[C@@H](CC(=O)c1ccc2oc3ccccc3c2c1)C(=O)O [(S)-2-Acetylamino-4-dibenzofuran-2-yl-4-oxo-butyric acid] | 5.81 | 6.80 |  |
| N[C@@H](CC(=O)c1ccc2oc3ccccc3c2c1)C(=O)O [(S)-2-Amino-4-dibenzofuran-2-yl-4-oxo-butyric acid] | 4.48 | 5.42 |  |
| O=C(O)[C@H](Cc1ccccc1)NS(=O)(=O)c1ccc(N2CCC(Cc3ccccc3)CC2)cc1 [(S)-2-[4-(4-Benzyl-piperidin-1-yl)-benzenesulfonyl-amino]-3-phenyl-propionic acid] | 7.68 | 7.06 |  |
| COc1ccc(N2CCN(c3ccc(S(=O)(=O)N[C@@H](Cc4ccccc4)C(=O)O)cc3)CC2)cc1 [(S)-2-{4-[-4-(4-Methoxy-phenyl)-piperazin-1-yl]-benzenesulfonylamino}-3-phenyl-propionic acid] | 7.85 | 7.48 |  |
| CC(C)[C@H](NS(=O)(=O)c1ccc(-c2ccc([N+](=O)[O-])cc2)cc1)C(=O)O [(S)-3-Methyl-2-(4′-nitro-biphenyl-4-sulfonylamino)-butyric acid] | 7.00 |  |  |
| O=C(O)[C@H](Cc1ccccc1)NS(=O)(=O)c1ccc(N2CCC(c3ccccc3)CC2)cc1 [(S)-3-Phenyl-2-[4-(4-phenyl-piperidin-1-yl)-benzene-sulfonylamino]-propionic acid] | 7.85 | 6.66 |  |
| O=C(C[C@H](NC(=O)C(F)(F)F)C(=O)O)c1ccc2oc3ccccc3c2c1 [(S)-4-Dibenzofuran-2-yl-4-oxo-2-(2,2,2-trifluoroacetylamino)-butyric acid] | 5.88 | 6.14 |  |
| O=C(CCc1ccccc1)N[C@@H](CC(=O)c1ccc2oc3ccccc3c2c1)C(=O)O [(S)-4-Dibenzofuran-2-yl-4-oxo-2-(3-phenyl-propionylamino)-butyric acid] | 6.55 | 7.02 |  |
| O=C(Cc1ccccc1)N[C@@H](CC(=O)c1ccc2oc3ccccc3c2c1)C(=O)O [(S)-4-Dibenzofuran-2-yl-4-oxo-2-phenylacetylamino-butyric acid] | 6.48 | 7.08 |  |
| O=C(CNS(=O)(=O)c1ccc(N2CCC(c3ccccc3)CC2)cc1)NO [N-Hydroxy-2-[4-(4-phenyl-piperidin-1-yl)-benzene-sulfonylamino]-acetamide] | 7.72 | 6.09 |  |
| O=C(CCC(=O)c1ccc(N2CCC(c3ccccc3)CC2)cc1)NO [N-Hydroxy-4-oxo-4-[4-(4-phenyl-piperidin-1-yl)-phenyl]-butyramide] | 7.70 | 7.40 |  |
| CNC(=O)[C@@H](NC(=O)[C@@H](CC(=O)NO)CC(C)C)C(C)(C)C [RO-31-9790, reference compound] | 6.33 | 8.22 | 8.26 |
| CC(C)CC(CC(=O)NO)C(=O)N[C@@H](CC(C)C)C(=O)N[C@@H](Cc1ccccc1)C(N)=O (stereo partly shown) [U24522, reference compound] | 7.70 |  |  |
| O=C(O)CNS(=O)(=O)c1ccc(N2CCC(c3ccccc3)CC2)cc1 [[4-(4-Phenyl-piperidin-1-yl)-benzenesulfonylamino]-acetic acid] | 7.70 | 6.68 |  |
